Patent publication US20260224597A1, “METHODS FOR ACTIVATING IMMUNE CELLS TO KILL BACTERIA” (The Texas A&M University System, priority 2023, published 2026)
Read-outs that look alike come from different tables or passages of the source.

Key:
[1] = system: Mtb; assay: Transmission electron microscopy of Mtb cell envelope thickness; format: cell-based, Mycobacterium tuberculosis; settings: TEM, 1 μg/ml INH and/or 5 μM gallein for 14 days
[2] = system: Mtb; assay: microbe, parasite or virus in culture; format: cell-based, Mycobacterium tuberculosis
[3] = target: IP6K1 (Homo sapiens, UniProt Q92551); settings: Liao 2021; read-out: IC50 as to IP6K1; cited from earlier work
Chain of IP6K1 (Q92551 whole entry): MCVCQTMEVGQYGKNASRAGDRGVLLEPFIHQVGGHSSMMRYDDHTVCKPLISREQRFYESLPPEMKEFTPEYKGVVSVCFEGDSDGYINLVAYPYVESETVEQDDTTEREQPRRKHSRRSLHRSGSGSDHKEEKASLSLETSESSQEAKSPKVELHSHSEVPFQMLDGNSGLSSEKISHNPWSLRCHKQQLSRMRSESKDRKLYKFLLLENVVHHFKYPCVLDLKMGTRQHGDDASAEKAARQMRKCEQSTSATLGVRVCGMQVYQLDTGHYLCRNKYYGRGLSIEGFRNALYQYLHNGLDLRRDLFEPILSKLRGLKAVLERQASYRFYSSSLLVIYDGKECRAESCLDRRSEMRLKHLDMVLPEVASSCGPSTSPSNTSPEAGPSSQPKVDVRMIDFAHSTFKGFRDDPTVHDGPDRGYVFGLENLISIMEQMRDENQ

[4] = system: Mtb
[5] = system: L. pneumophila; format: cell-based, Legionella pneumophila
[6] = system: human macrophages
[7] = system: Mtb; assay: microbe, parasite or virus in culture; settings: Mycobacterium tuberculosis, Macrophage, in Homo sapiens, 48 h, read-out: reduction of the viability of Mtb
[8] = system: L. monocytogenes; format: cell-based, Listeria monocytogenes
[9] = target: PPK1 (Pseudomonas aeruginosa, UniProt P0DP44); settings: in Pseudomonas aeruginosa, Neville et al., 2021; cited from earlier work
Chain of PPK1 (P0DP44 whole entry): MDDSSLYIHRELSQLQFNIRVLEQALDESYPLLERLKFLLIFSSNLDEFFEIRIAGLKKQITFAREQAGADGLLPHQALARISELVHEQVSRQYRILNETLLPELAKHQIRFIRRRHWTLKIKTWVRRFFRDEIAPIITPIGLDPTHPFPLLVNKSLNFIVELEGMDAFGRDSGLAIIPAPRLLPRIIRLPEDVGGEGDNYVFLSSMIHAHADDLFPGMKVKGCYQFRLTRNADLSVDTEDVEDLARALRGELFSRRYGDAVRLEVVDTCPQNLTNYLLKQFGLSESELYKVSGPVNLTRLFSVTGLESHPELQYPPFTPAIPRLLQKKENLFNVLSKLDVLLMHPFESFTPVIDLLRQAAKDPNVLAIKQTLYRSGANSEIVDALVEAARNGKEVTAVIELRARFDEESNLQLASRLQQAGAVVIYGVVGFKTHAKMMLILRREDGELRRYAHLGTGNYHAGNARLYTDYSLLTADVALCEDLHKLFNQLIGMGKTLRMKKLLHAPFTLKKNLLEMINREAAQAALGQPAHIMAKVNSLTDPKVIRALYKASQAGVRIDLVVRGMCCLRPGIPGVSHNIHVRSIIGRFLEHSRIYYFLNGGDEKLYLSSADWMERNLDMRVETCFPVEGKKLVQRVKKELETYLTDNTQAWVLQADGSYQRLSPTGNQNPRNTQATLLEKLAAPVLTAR

[10] = system: PPK2; settings: in Pseudomonas aeruginosa, Neville et al., 2021; cited from earlier work
[11] = system: P. aeruginosa; settings: in Caenorhabditis elegans, Neville et al., 2021; cited from earlier work

SMILES | Mtb cell envelope thickness [1] | number of ingested Mtb compared to control [4] | number of viable Mtb compared to control [4] | viability of ingested L. pneumophila compared to control [5] | metabolic activity of macrophages infected with Mtb [6] | viability of ingested L. monocytogenes compared to control [8] | further results
NNC(=O)c1ccncc1 [INH, Isonicotinic acid hydrazide] | increased | – | – | – | – | – | Mtb growth [2]: partial but not complete reduction
Cn1sc(=O)n(Cc2ccccc2)c1=O [LI-1753] | – | – | – | – | – | – | IC50 [3]: 2150 nM
O=[N+]([O-])c1ccc(CNc2nc(NCc3cccc(C(F)(F)F)c3)nc3[nH]cnc23)cc1 [TNP, N6-[(4-nitrophenyl)methyl]-N2-[[3-(trifluoromethyl)phenyl]methyl]-9H-Purine-2,6-diamine] | – | increased | reduced the number of viable Mtb | reduced the viability | did not significantly change | reduced the viability | metabolic activity of macrophages [6]: reduced the metabolic activity; inhibition at 1 µM [7]: ~50%
O=C1OC2(c3ccccc31)c1ccc(O)c(O)c1Oc1c2ccc(O)c1O [gallein, 3′,4′,5′,6′-Tetrahydroxyspiro[isobenzofuran-1(3H),9′-(9H)xanthen]-3-one] | did not significantly affect | increased | reduced the number of viable Mtb | reduced the viability | did not significantly change | reduced the viability | PPK1 enzyme activity [9]: inhibits; ingested Mtb viability compared to control [4]: decreased ingested Mtb viability; viability of ingested Mtb compared to control [4]: reduced the viability; PPK2 enzyme activity [10]: inhibits; virulence of P. aeruginosa [11]: attenuates the virulence; metabolic activity of macrophages ([6]; human): None of the concentrations of MRS2279 and gallein significantly altered; Mtb growth compared to control [2]: slightly slowed growth; inhibition at 50 µM ([2]; Mycobacterium tuberculosis, 336 h, read-out: inhibition of Mtb growth): ~80%
